{
  "source": "patent US6489469B1",
  "about": "“Method for storing or transporting erythritol solution” (Nikken Chemicals Co., Ltd., priority 1999, dated 2002)",
  "test_system": "Bacillus stearothermophilus IFO 12550",
  "assay": "Viable Count of Bacillus stearothermophilus IFO 12550 in Erythritol Solution (heat resistant bacteria)",
  "type": "cell-based",
  "description": "Erythritol solutions of respective concentrations in the range of from 30 to 70% were prepared. To these was inoculated Bacillus stearothermophilus IFO 12550 as a heat resistant bacterium in a population (concentration) of 10,000 cells/mL or more.\nAfter the inoculation, the solutions were stored at 50, 60 or 75° C., respectively, for 56 days and the number of viable cell was determined daily. The determination of the number of viable cell was performed by in the same manner as in Example 1.",
  "data": [
    {"smiles": "OC[C@@H](O)[C@@H](O)CO", "note": "[Erythritol Solution, erythritol]", "values": [
      {"measurement": "The Number of Viable Cell", "setting": "50° C., 40% w/w, Day 28", "result": 50, "unit": "cells/mL"},
      {"measurement": "The Number of Viable Cell", "setting": "50° C., 40% w/w, Day 56", "result": 60, "unit": "cells/mL"},
      {"measurement": "The Number of Viable Cell", "setting": "50° C., 50% w/w, Day 0", "result": "10000 or more cells/mL"},
      {"measurement": "The Number of Viable Cell", "setting": "50° C., 50% w/w, Day 3", "result": 100, "unit": "cells/mL"},
      {"measurement": "The Number of Viable Cell", "setting": "50° C., 50% w/w, Day 7", "result": 100, "unit": "cells/mL"},
      {"measurement": "The Number of Viable Cell", "setting": "50° C., 50% w/w, Day 14", "result": 50, "unit": "cells/mL"},
      {"measurement": "The Number of Viable Cell", "setting": "50° C., 50% w/w, Day 28", "result": 70, "unit": "cells/mL"},
      {"measurement": "The Number of Viable Cell", "setting": "50° C., 50% w/w, Day 56", "result": 120, "unit": "cells/mL"},
      {"measurement": "The Number of Viable Cell", "setting": "60° C., 30% w/w, Day 0", "result": "10000 or more cells/mL"},
      {"measurement": "The Number of Viable Cell", "setting": "60° C., 30% w/w, Day 3", "result": 90, "unit": "cells/mL"},
      {"measurement": "The Number of Viable Cell", "setting": "60° C., 30% w/w, Day 7", "result": 60, "unit": "cells/mL"},
      {"measurement": "The Number of Viable Cell", "setting": "60° C., 30% w/w, Day 14", "result": 90, "unit": "cells/mL"},
      {"measurement": "The Number of Viable Cell", "setting": "60° C., 30% w/w, Day 28", "result": 300, "unit": "cells/mL"},
      {"measurement": "The Number of Viable Cell", "setting": "60° C., 30% w/w, Day 56", "result": 0, "unit": "cells/mL"},
      {"measurement": "The Number of Viable Cell", "setting": "60° C., 40% w/w, Day 0", "result": "10000 or more cells/mL"},
      {"measurement": "The Number of Viable Cell", "setting": "60° C., 40% w/w, Day 3", "result": 60, "unit": "cells/mL"},
      {"measurement": "The Number of Viable Cell", "setting": "60° C., 40% w/w, Day 7", "result": 70, "unit": "cells/mL"},
      {"measurement": "The Number of Viable Cell", "setting": "60° C., 40% w/w, Day 14", "result": 200, "unit": "cells/mL"},
      {"measurement": "The Number of Viable Cell", "setting": "60° C., 40% w/w, Day 28", "result": 320, "unit": "cells/mL"},
      {"measurement": "The Number of Viable Cell", "setting": "60° C., 40% w/w, Day 56", "result": 0, "unit": "cells/mL"},
      {"measurement": "The Number of Viable Cell", "setting": "60° C., 50% w/w, Day 0", "result": "10000 or more cells/mL"},
      {"measurement": "The Number of Viable Cell", "setting": "60° C., 50% w/w, Day 3", "result": 100, "unit": "cells/mL"},
      {"measurement": "The Number of Viable Cell", "setting": "60° C., 50% w/w, Day 7", "result": 150, "unit": "cells/mL"},
      {"measurement": "The Number of Viable Cell", "setting": "60° C., 50% w/w, Day 14", "result": 200, "unit": "cells/mL"},
      {"measurement": "The Number of Viable Cell", "setting": "60° C., 50% w/w, Day 28", "result": 330, "unit": "cells/mL"},
      {"measurement": "The Number of Viable Cell", "setting": "60° C., 50% w/w, Day 56", "result": 0, "unit": "cells/mL"},
      {"measurement": "The Number of Viable Cell", "setting": "60° C., 60% w/w, Day 0", "result": "10000 or more cells/mL"},
      {"measurement": "The Number of Viable Cell", "setting": "60° C., 60% w/w, Day 3", "result": 130, "unit": "cells/mL"},
      {"measurement": "The Number of Viable Cell", "setting": "60° C., 60% w/w, Day 7", "result": 100, "unit": "cells/mL"},
      {"measurement": "The Number of Viable Cell", "setting": "60° C., 60% w/w, Day 14", "result": 150, "unit": "cells/mL"},
      {"measurement": "The Number of Viable Cell", "setting": "60° C., 60% w/w, Day 28", "result": 120, "unit": "cells/mL"},
      {"measurement": "The Number of Viable Cell", "setting": "60° C., 60% w/w, Day 56", "result": 0, "unit": "cells/mL"},
      {"measurement": "time after which all the cells died", "setting": "75° C.", "result": 14, "unit": "days"},
      {"measurement": "The Number of Viable Cell", "setting": "75° C., 30% w/w, Day 0", "result": "10000 or more cells/mL"},
      {"measurement": "The Number of Viable Cell", "setting": "75° C., 30% w/w, Day 3", "result": 350, "unit": "cells/mL"},
      {"measurement": "The Number of Viable Cell", "setting": "75° C., 30% w/w, Day 7", "result": 340, "unit": "cells/mL"},
      {"measurement": "The Number of Viable Cell", "setting": "75° C., 30% w/w, Day 14", "result": 0, "unit": "cells/mL"},
      {"measurement": "The Number of Viable Cell", "setting": "75° C., 30% w/w, Day 28", "result": 0, "unit": "cells/mL"},
      {"measurement": "The Number of Viable Cell", "setting": "75° C., 30% w/w, Day 56", "result": 0, "unit": "cells/mL"},
      {"measurement": "The Number of Viable Cell", "setting": "75° C., 40% w/w, Day 0", "result": "10000 or more cells/mL"},
      {"measurement": "The Number of Viable Cell", "setting": "75° C., 40% w/w, Day 3", "result": 330, "unit": "cells/mL"},
      {"measurement": "The Number of Viable Cell", "setting": "75° C., 40% w/w, Day 7", "result": 490, "unit": "cells/mL"},
      {"measurement": "The Number of Viable Cell", "setting": "75° C., 40% w/w, Day 14", "result": 0, "unit": "cells/mL"},
      {"measurement": "The Number of Viable Cell", "setting": "75° C., 40% w/w, Day 28", "result": 0, "unit": "cells/mL"},
      {"measurement": "The Number of Viable Cell", "setting": "75° C., 40% w/w, Day 56", "result": 0, "unit": "cells/mL"},
      {"measurement": "The Number of Viable Cell", "setting": "75° C., 50% w/w, Day 0", "result": "10000 or more cells/mL"},
      {"measurement": "The Number of Viable Cell", "setting": "75° C., 50% w/w, Day 3", "result": 220, "unit": "cells/mL"},
      {"measurement": "The Number of Viable Cell", "setting": "75° C., 50% w/w, Day 7", "result": 590, "unit": "cells/mL"},
      {"measurement": "The Number of Viable Cell", "setting": "75° C., 50% w/w, Day 14", "result": 0, "unit": "cells/mL"},
      {"measurement": "The Number of Viable Cell", "setting": "75° C., 50% w/w, Day 28", "result": 0, "unit": "cells/mL"},
      {"measurement": "The Number of Viable Cell", "setting": "75° C., 50% w/w, Day 56", "result": 0, "unit": "cells/mL"},
      {"measurement": "The Number of Viable Cell", "setting": "75° C., 60% w/w, Day 0", "result": "10000 or more cells/mL"},
      {"measurement": "The Number of Viable Cell", "setting": "75° C., 60% w/w, Day 3", "result": 170, "unit": "cells/mL"},
      {"measurement": "The Number of Viable Cell", "setting": "75° C., 60% w/w, Day 7", "result": 480, "unit": "cells/mL"},
      {"measurement": "The Number of Viable Cell", "setting": "75° C., 60% w/w, Day 14", "result": 0, "unit": "cells/mL"},
      {"measurement": "The Number of Viable Cell", "setting": "75° C., 60% w/w, Day 28", "result": 0, "unit": "cells/mL"},
      {"measurement": "The Number of Viable Cell", "setting": "75° C., 60% w/w, Day 56", "result": 0, "unit": "cells/mL"},
      {"measurement": "The Number of Viable Cell", "setting": "75° C., 70% w/w, Day 0", "result": "10000 or more cells/mL"},
      {"measurement": "The Number of Viable Cell", "setting": "75° C., 70% w/w, Day 3", "result": 140, "unit": "cells/mL"},
      {"measurement": "The Number of Viable Cell", "setting": "75° C., 70% w/w, Day 7", "result": 210, "unit": "cells/mL"},
      {"measurement": "The Number of Viable Cell", "setting": "75° C., 70% w/w, Day 14", "result": 0, "unit": "cells/mL"},
      {"measurement": "The Number of Viable Cell", "setting": "75° C., 70% w/w, Day 28", "result": 0, "unit": "cells/mL"},
      {"measurement": "The Number of Viable Cell", "setting": "75° C., 70% w/w, Day 56", "result": 0, "unit": "cells/mL"},
      {"measurement": "growth of the bacteria", "setting": "all the concentrations, temperature of 50° C. or more", "result": "inhibited"}
    ]}
  ]
}
